From patent EP3436445B1, “HISTONE DEMETHYLASE INHIBITORS” (Celgene Quanticel Research, Inc., priority 2016, dated 2017)

Tests used:
[1] = molecular target: T1, Jarid1B (Homo sapiens, UniProt Q9UGL1); experiment: Jarid1B in vitro enzyme inhibition assay (TR-FRET); assay type: biochemical; conditions: Table 5; 0.8 nM Jarid1B, H3K4me3-biotin labeled peptide; read-out: JARID1B IC5
T1 construct: purchased BPS Bioscience (or custom made by MolecularThroughput) 50121
T1 sequence (Q9UGL1 2-751): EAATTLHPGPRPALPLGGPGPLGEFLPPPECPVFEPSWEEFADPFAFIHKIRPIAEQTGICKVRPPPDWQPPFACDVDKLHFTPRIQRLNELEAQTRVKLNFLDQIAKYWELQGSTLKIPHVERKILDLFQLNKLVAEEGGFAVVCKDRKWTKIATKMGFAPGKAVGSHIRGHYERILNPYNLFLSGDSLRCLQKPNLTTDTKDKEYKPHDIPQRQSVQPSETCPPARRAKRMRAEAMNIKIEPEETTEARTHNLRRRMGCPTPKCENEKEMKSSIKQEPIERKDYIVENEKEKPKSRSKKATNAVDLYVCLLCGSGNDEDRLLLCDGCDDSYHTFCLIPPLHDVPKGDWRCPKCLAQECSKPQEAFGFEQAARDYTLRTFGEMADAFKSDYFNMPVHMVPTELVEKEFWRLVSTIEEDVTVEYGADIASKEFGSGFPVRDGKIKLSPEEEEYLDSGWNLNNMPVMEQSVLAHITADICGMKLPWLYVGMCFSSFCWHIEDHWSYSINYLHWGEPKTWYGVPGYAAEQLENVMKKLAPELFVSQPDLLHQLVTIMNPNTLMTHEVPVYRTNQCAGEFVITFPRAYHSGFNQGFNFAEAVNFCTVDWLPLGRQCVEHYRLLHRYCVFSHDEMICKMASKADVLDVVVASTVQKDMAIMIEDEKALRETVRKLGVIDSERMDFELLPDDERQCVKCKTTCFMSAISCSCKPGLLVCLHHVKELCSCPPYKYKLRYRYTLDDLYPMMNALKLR
Text: (§1) This assay determines the ability of a test compound to inhibit Jarid1B, JMJD2C and JMJD3 demethylase activity. Baculovirus expressed Jarid1B (GenBank Accession #NM-006618, AA 2-751) was purchased from BPS Bioscience (Cat #50121) or custom made by MolecularThroughput. Baculovirus expressed JMJD2C (GenBank Accession #BC143571, AA 2-372) was purchased from BPS Bioscience (Cat#50105). Baculovirus expressed JMJD3 (GenBank Accession #NM-001080424, AA1043-end) was purchased from BPS Bioscience (Cat#50115).
The ability of test compounds to inhibit the activity of Jarid1B was determined in 384-well plate format under the following reaction conditions: 0.8 nM Jarid1B, 300 nM H3K4me3-biotin labeled peptide (Anaspec cat #64357), 2 µM alpha-ketoglutaric acid in assay buffer of 50 mM HEPES, pH7.3, 0.005% Brij35, 0.5 mM TCEP, 0.2 mg/ml BSA, 50 µM sodium L-ascorbate, and 2 µM ammonium iron(II) sulfate. Reaction product was determined quantitatively by TR-FRET after the addition of detection reagent Phycolink Streptavidin-allophycocyanin (Prozyme) and Europium-anti-mono-or di-methylated histone H3 lysine 4 (H3K4me1-2) antibody (PerkinElmer) in the presence of 5 mM EDTA in LANCE detection buffer (PerkinElmer) at a final concentration of 25 nM and 1 nM, respectively.
The assay reaction was initiated by the following: 2 µl of the mixture of 900 nM H3K4me3-biotin labeled peptide and 6 µM alpha-ketoglutaric acid with 2 µl of 11-point serial diluted inhibitor in 3% DMSO was added to each well of the plate, followed by the addition of 2 µl of 2.4 nM Jarid1B to initiate the reaction. The reaction mixture was incubated at room temperature for 30 minutes, and terminated by the addition of 6 µl of 5 mM EDTA in LANCE detection buffer containing 50 nM Phycolink Streptavidin-allophycocyanin and 2 nM Europium-anti-H3K4me1-2 antibody. Plates were read by EnVisionMultilabel Reader in TR-FRET mode (excitation at 320 nm, emission at 615 nm and 665 nm) after 1 hour incubation at room temperature. A ratio was calculated (665/615) for each well and fitted to determine inhibition constant (IC50).

[2] = molecular target: T2, JMJD3 (Homo sapiens, UniProt O15054); experiment: JMJD3 in vitro enzyme inhibition assay (AlphaScreen); assay type: biochemical; conditions: Table 5; 1 nM JMJD3, H3K27me3-biotin labeled peptide
T2 construct: purchased BPS Bioscience 50115
Text: as §1
The ability of test compounds to inhibit the activity of JMJD3 was determined in 384-well plate format under the following reaction conditions: 1 nM JMJD3, 250 nM H3K27me3-biotin labeled peptide (Anaspec cat # 64367), 1 µM alpha-ketoglutaric acid in assay buffer of 50 mM HEPES, pH7.3, 0.005% Brij35, 0.5 mM TCEP, 0.2 mg/ml BSA, 50 µM sodium L-ascorbate, 5 µM ammonium iron(II) sulfate. Reaction product is determined quantitatively by AlphaScreen detection after the addition of detection reagents anti-H3K27me1 antibody, 5 µg/ml AlphaScreen® Streptavidin-coated Donor beads, and 5 µg/ml AlphaScreen® Protein A Acceptor beads in 50 mM HEPES, pH7.3, 10 mM NaCl, 0.005% Brij35, 10 mM EDTA, 2 mg/ml BSA.
The assay reaction was initiated by the following: 3 µl of the mixture of 750 nM H3K27me3-biotin labeled peptide and 3 µM alpha-ketoglutaric acid with 3 µl of 11-point serial diluted inhibitor in 3% DMSO are added to each well of 384 well Proxiplate (Perkin Elmer), followed by the addition of 3 µl of 3 nM JMJD3 to initiate the reaction. The reaction mixture is incubated at room temperature for 20 minutes, and terminated by the addition of 3 µl of appropriate dilution of anti H3K27me1 antibody in 50 mM HEPES, pH7.3, 10 mM NaCl, 0.005% Brij35, 10 mM EDTA, 2 mg/ml BSA. Plates will then incubated at room temperature for 1 hour, followed by addition of 3 µl of 25 µg/ml AlphaScreen® Streptavidin-coated Donor beads and AlphaScreen® Protein A Acceptor beads in 50 mM HEPES, pH7.3, 10 mM NaCl, 0.005% Brij35, 10 mM EDTA, 2 mg/ml BSA. Plates will then be read by EnVision Multilabel Reader in AlphaScreen mode after minimum 2 hour incubation at room temperature. The AlphaScreen signal for each well is used to determine inhibition constant (IC50).

T2 sequence (O15054 1043-1682 isoform O15054-1): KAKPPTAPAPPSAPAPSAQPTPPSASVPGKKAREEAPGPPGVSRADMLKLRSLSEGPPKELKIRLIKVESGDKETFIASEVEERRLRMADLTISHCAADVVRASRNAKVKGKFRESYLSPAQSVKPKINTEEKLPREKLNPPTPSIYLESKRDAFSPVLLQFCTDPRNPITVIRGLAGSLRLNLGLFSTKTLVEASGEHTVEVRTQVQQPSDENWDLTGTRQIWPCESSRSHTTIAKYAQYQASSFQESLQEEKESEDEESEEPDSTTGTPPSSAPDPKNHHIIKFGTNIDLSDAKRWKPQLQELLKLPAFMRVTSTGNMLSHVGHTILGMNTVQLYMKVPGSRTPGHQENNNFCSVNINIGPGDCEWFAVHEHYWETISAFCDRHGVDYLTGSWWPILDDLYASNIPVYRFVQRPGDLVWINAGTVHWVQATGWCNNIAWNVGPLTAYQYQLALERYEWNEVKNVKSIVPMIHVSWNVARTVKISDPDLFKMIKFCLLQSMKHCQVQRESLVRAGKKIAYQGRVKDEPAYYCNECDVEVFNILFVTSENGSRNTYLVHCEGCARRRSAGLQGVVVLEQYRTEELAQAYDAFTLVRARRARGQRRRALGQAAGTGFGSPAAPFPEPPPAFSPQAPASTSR

Row | SMILES | IC50 [1] | IC50 [2]
1 | CCOc1ccccc1CCn1cnc(-c2cc(-c3nn[nH]c3C(F)(F)F)ccn2)c1 [Example 59] | ≤ 100 nM | > 10000 nM
2 | Cc1ccc(Cn2cnc(-c3cc(-c4nn[nH]c4C(F)(F)F)ccn3)c2)cc1 [Example 65, 2-{1-[(4-methylphenyl)methyl]-1H-imidazol-4-yl}-4-[5-(trifluoromethyl)-1H-1,2,3-triazol-4-yl]pyridine] | > 10000 nM | > 10000 nM
3 | FC(F)(F)c1[nH]nnc1-c1ccnc(-c2cn(Cc3ccccc3)cn2)c1 [Example 72, 2-(1-benzyl-1H-imidazol-4-yl)-4-[5-(trifluoromethyl)-1H-1,2,3-triazol-4-yl]pyridine] | 100 to 1000 nM | > 10000 nM
4 | FC(F)(F)c1[nH]nnc1-c1ccnc(-c2cn(CCc3ccccc3Cl)cn2)c1 [Example 57] | ≤ 100 nM | > 10000 nM
5 | CCC(c1ccccc1)n1cnc(-c2cc(-c3nn[nH]c3C(F)(F)F)ccn2)c1 (stereo not shown) [Example 74, 2-[1-(1-phenylpropyl)-1H-imidazol-4-yl]-4-[5-(trifluoromethyl)-1H-1,2,3-triazol-4-yl]pyridine] | 100 to 1000 nM | > 10000 nM
6 | FC(F)(F)c1[nH]nnc1-c1ccnc(-c2cn(CC3CCCc4ccccc43)cn2)c1 (stereo not shown) [Example 58, 2-{1-[(1,2,3,4-tetrahydronaphthalen-1-yl)methyl]-1H-imidazol-4-yl}-4-[5-(trifluoromethyl)-1H-1,2,3-triazol-4-yl]pyridine] | ≤ 100 nM | > 10000 nM
7 | Fc1ccc(CCn2cnc(-c3cc(-c4nn[nH]c4C(F)(F)F)ccn3)c2)cc1 [Example 77] | ≤ 100 nM | 1000 to 10000 nM

Second part, the molecule after the results:

Row | IC50 [1] | IC50 [2] | SMILES
8 | ≤ 100 nM | > 10000 nM | Fc1cc(F)c(CCn2cnc(-c3cc(-c4nn[nH]c4C(F)(F)F)ccn3)c2)cc1F [Example 81, 4-[5-(trifluoromethyl)-1H-1,2,3-triazol-4-yl]-2-{1-[2-(2,4,5-trifluorophenyl)ethyl]-1H-imidazol-4-yl}pyridine]
9 | 100 to 1000 nM | > 10000 nM | Fc1cccc(Cl)c1CCn1cnc(-c2cc(-c3nn[nH]c3C(F)(F)F)ccn2)c1 [Example 80, 2-{1-[2-(2-chloro-6-fluorophenyl)ethyl]-1H-imidazol-4-yl}-4-[5-(trifluoromethyl)-1H-1,2,3-triazol-4-yl]pyridine]
10 | ≤ 100 nM | > 10000 nM | FC(F)(F)c1[nH]nnc1-c1ccnc(-c2cn(CC3CCOc4ccccc43)cn2)c1 (stereo not shown) [Example 98, 2-{1-[(3,4-dihydro-2H-1-benzopyran-4-yl)methyl]-1H-imidazol-4-yl}-4-[5-(trifluoromethyl)-1H-1,2,3-triazol-4-yl]pyridine]
11 | 100 to 1000 nM | > 10000 nM | Cc1ccc2c(c1)CCCC2Cn1cnc(-c2cc(-c3nn[nH]c3C(F)(F)F)ccn2)c1 (stereo not shown) [Example 102, 2-{1-[(6-methyl-1,2,3,4-tetrahydronaphthalen-1-yl)methyl]-1H-imidazol-4-yl}-4-[5-(trifluoromethyl)-1H-1,2,3-triazol-4-yl]pyridine]
12 | ≤ 100 nM | > 10000 nM | Cn1cnc(-c2cc(-c3nn[nH]c3C(F)(F)F)ccn2)c1-c1ccc(F)cc1 [Example 97, 2-[5-(4-fluorophenyl)-1-methyl-1H-imidazol-4-yl]-4-[5-(trifluoromethyl)-1H-1,2,3-triazol-4-yl]pyridine]
13 | 100 to 1000 nM | > 10000 nM | COc1ccc2c(c1)CCCC2Cn1cnc(-c2cc(-c3nn[nH]c3C(F)(F)F)ccn2)c1 (stereo not shown) [Example 105, 2-{1-[(6-methoxy-1,2,3,4-tetrahydronaphthalen-1-yl)methyl]-1H-imidazol-4-yl}-4-[5-(trifluoromethyl)-1H-1,2,3-triazol-4-yl]pyridine]
14 | 100 to 1000 nM | > 10000 nM | Fc1cc(F)c(CCn2cnc(-c3cc(-c4nn[nH]c4C(F)(F)F)ccn3)c2)c(F)c1 [Example 82, 4-[5-(trifluoromethyl)-1H-1,2,3-triazol-4-yl]-2-{1-[2-(2,4,6-trifluorophenyl)ethyl]-1H-imidazol-4-yl}pyridine]
